Where two headings read alike, the source gives them in different places.
How the values were obtained:
männliche NMRI-Mäuse [1] = assay: Tail-flick test (radiant heat) in the mouse; type: in vivo, Maus; conditions: for ED50: Mus musculus
Description: (§1) Dazu wurden männliche NMRI-Mäuse mit einem Gewicht von 20 bis 25 g oder weibliche Sprague Dawly-Ratten mit einem Gewicht von 120 bis 160 g verwendet. Die Tiere wurden einzeln in Testkäfige gesetzt und die Schwanzbasis einem fokussierten Wärmestrahl einer elektrischen Lampe (Rhema-Analgesiemeter) ausgesetzt. Die Lampenintensität wurde so eingestellt, daß die Zeit vom Einschalten der Lampe bis zum plötzlichen Wegzucken des Schwanzes (Schmerzlatenz) bei unbehandelten Tieren 3 bis 6 Sekunden betrug. Vor Gabe der erfindungsgemäß zu verwendenden Verbindung wurden die Tiere innerhalb von 5 Minuten zweimal getestet und der Mittelwert dieser Messungen als Vortestmittelwert berechnet. Die Schmerzmessung wurde 20, 40 und 60 Minuten nach intravenöser und 30, 60, 90, 120 Minuten nach oraler Gabe durchgeführt. Bei Anstieg der Schmerzlatenz wurde die maximale Expositionszeit auf 12 Sekunden beschränkt und die Zunahme der Latenzzeit von >150 % des Vortestmittelwerts als analgetische Wirkung gewertet. Zur Bestimmung der Dosisabhängigkeit wurden die Verbindungen in 3 bis 5 logarithmisch ansteigenden Dosen, die jeweils die Schwellen- und die maximale Wirkdosis einschlossen, appliziert und aus der Anzahl der Tiere, die analgetische Wirkung zeigten, nach der Methode von Litchfeld und Wilcoxon (J. Pharm. Ex. Ther. 96, 99 bis 113 (1949)) die ED50-Werte bestimmt. Die ED50-Berechnung erfolgte im Wirkmaximum jeweils 20 Minuten nach intravenöser und jeweils 30 Minuten nach oraler Substanzgabe.
(§2) Die Bestimmung der oralen Wirkverfügbarkeit erfolgte aus dem Verhältnis der ED50-Werte bei i.v.- und p.o.-Gabe. Wirkverfügbarkeit =(ED50 i.v.)/(ED50 p.o.) [formula]

[2] = Animal experiments on constipating effect (no method given); type: in vivo; conditions: compared with Morphin
männliche NMRI-Mäuse [3] = assay: Phenylquinone-induced writhing test in the mouse; type: in vivo, Maus
Experimental: Die Untersuchung auf analgetische Wirksamkeit wurde im Phenylchinon-induzierten Writhing an der Maus (modifiziert nach I. C. Hendershot, J. Forsaith, J. Pharmacol. Exp. Ther. 125, 237 - 240 (1959)) durchgeführt. Dazu wurden männliche NMRI-Mäuse mit einem Gewicht von 25 bis 30 g verwendet. Gruppen von 10 Tieren pro Substanzdosis erhielten 10 Minuten nach intravenöser Gabe und 30 Minuten nach oraler Gabe der erfindungsgemäß zu verwendenden Verbindungen 0,3 ml/Maus einer 0,02 %-igen wäßrigen Lösung des Phenylchinon (Phenylbenzochinon, Fa. Sigma, Deisenhofen; Herstellung der Lösung unter Zusatz von 5 % Ethanol und Aufbewahrung im Wasserbad bei 45° C) intraperitoneal appliziert. Die Tiere wurden einzeln in Beobachtungskäfige gesetzt und mittels Drucktastenzähler die Anzahl der Schmerz-induzierten Streckbewegungen (sogenannte Writhing-Reaktionen = Durchdrücken des Körpers nach Abstrecken der Hinterextremitäten) 5 bis 20 Minuten nach der Phenylchinongabe ausgezählt. Aus der dosisabhängigen Abnahme der Writhing-Reaktionen im Vergleich zu parallel untersuchten, nur mit Phenylchinon behandelten Kontrollgruppen wurden mittels Regressionsanalyse (Auswerteprogramm Martens, EDV-Serivce, Eckental) der ED50-Wert für die Hemmung der Writhing-Reaktlon berechnet.

[4] = test system: weibliche Sprague Dawly-Ratten; assay: Tail-flick test (radiant heat) in the rat; conditions: for ED50: Rattus norvegicus
Description: as §1, §2

[5] = test system: weibliche Sprague Dawly-Ratten; conditions: rat, in vivo
Description: as §1, §2

[6] = iv, 20 min, read-out: ED50-Werte Tail-flick, Ratte i.v.
[7] = po, 0.5 h, read-out: ED50-Werte Tail-flick, Ratte p.o.

Row | Compound | ED50 (männliche NMRI-Mäuse [1]; iv, 20 min, read-out: ED50-Werte Tail-flick, Maus i.v.) [mg/kg] | ED50 (männliche NMRI-Mäuse [1]; po, 0.5 h, read-out: ED50-Werte Tail-flick, Maus p.o.) [mg/kg] | orale Wirkverfügbarkeit (männliche NMRI-Mäuse [1]; Tail-flick, mouse, (ED50 i.v.)/(ED50 p.o.)) | besser oral verfügbar als Morphin (männliche NMRI-Mäuse [1]; mouse (tail-flick and writhing taken together), relative to Morphin) [mal] | obstipierende Wirkungen [2] | analgetische Wirkung (männliche NMRI-Mäuse [3]; Writhing test, result in words) | orale Wirkverfügbarkeit (männliche NMRI-Mäuse [3]; Writhing, (ED50 i.v.)/(ED50 p.o.)) | ED50 (männliche NMRI-Mäuse [3]; iv, 10 min, i.v., phenylquinone i.p. 10 min after dosing, read-out: ED50-Werte Writhing, Maus i.v.) [mg/kg] | ED50 (männliche NMRI-Mäuse [3]; po, 0.5 h, p.o., phenylquinone i.p. 30 min after dosing, read-out: ED50-Werte Writhing, Maus p.o.) [mg/kg] | ED50 [4, 6] [mg/kg] | ED50 [4, 7] [mg/kg] | analgetische Wirkung ([4]; Tail-flick test, rat, result in words) | orale Wirkverfügbarkeit ([4]; Tail-flick, rat, (ED50 i.v.)/(ED50 p.o.)) | besser oral verfügbar als Morphin ([4]; rat, tail-flick, relative to Morphin) [mal] | orale Wirkverfügbarkeit [5]
1 | CN(C)C[C@H]1CCCC[C@]1(O)c1cccc(O)c1 [(+)-O-Demethyltramadol] | 1.41 | 3.75 | 0,38 | ~5 | schwächere obstipierende Wirkungen als Morphin | ausgeprägte analgetische Wirkung | 0,26 | 0.49 | 1.87 | 1.01 | 4.9 | ausgeprägte analgetische Wirkung | 0,21 | ~20 | 
2 | CN1CC[C@]23c4c5ccc(O)c4O[C@H]2[C@@H](O)C=C[C@H]3[C@H]1C5 [Morphin, reference compound] |  |  |  |  |  |  |  |  |  | 0.93 | 75 |  |  |  | 0,01

Source: EP0870499A1, “Oral use of (+)-0-Demethyltramadol as analgesic” (Grünenthal GmbH, priority 1997, dated 1998)
